# Earlier results as cited in PMC5826112, “Intrapulmonary Pharmacokinetics of Relebactam, a Novel β-Lactamase Inhibitor, Dosed in Combination with Imipenem-Cilastatin in Healthy Subjects” (Antimicrobial Agents and Chemotherapy, 2018).
# Tests used:
# [1] = no reference given; cited from earlier work
# [2] = design: method as in PMID 25403667; conditions: thigh infection model; cited from earlier work
# [3] = design: method as in PMID 27503659, PMID 28575389; conditions: coadministration with imipenem-cilastatin, phase 2 clinical studies; cited from earlier work
compound,measurement,setting,value
O=C(NC1CCNCC1)[C@@H]1CC[C@@H]2CN1C(=O)N2OS(=O)(=O)O [relebactam],unbound in plasma (free fraction),[1],~80%
same,required exposure (AUC0–24) for efficacy,[2],~100 µM·h
same,tolerability,[3],generally well tolerated
